Measurements taken from ChEMBL document CHEMBL1201862, “PubChem BioAssay data set” (2004).
Values belong to the compound of their own block, whether it stands above or below them. Activity calls are given as the source filed them. Rule as the data show it, for most assays here: actives have a measured IC50 and inactives only a lower limit.

What was measured:
SUMO E1/E2 = SUMO E1/E2 (Homo sapiens, UniProt P63279+Q9UBE0+Q9UBT2); assay: SAR analysis of SUMOylation using HTRF in an in-Vitro dose response assay. [Related pubchem assays (depositor defined):AID2006, AID2011, AID2018, AID2069, AID2658]; type: functional
Chain of SUMO E1/E2 (Q9UBE0 whole entry): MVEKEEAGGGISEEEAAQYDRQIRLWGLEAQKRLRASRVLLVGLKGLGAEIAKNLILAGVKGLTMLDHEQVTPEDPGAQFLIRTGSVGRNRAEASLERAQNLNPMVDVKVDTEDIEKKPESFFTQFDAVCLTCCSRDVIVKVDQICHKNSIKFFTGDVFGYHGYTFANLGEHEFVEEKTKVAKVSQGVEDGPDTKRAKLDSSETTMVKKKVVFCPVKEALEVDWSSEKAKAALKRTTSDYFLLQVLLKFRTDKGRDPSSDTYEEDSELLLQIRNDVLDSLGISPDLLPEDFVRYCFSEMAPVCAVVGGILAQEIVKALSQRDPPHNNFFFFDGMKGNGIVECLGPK
Chain of SUMO E1/E2 (Q9UBT2 whole entry): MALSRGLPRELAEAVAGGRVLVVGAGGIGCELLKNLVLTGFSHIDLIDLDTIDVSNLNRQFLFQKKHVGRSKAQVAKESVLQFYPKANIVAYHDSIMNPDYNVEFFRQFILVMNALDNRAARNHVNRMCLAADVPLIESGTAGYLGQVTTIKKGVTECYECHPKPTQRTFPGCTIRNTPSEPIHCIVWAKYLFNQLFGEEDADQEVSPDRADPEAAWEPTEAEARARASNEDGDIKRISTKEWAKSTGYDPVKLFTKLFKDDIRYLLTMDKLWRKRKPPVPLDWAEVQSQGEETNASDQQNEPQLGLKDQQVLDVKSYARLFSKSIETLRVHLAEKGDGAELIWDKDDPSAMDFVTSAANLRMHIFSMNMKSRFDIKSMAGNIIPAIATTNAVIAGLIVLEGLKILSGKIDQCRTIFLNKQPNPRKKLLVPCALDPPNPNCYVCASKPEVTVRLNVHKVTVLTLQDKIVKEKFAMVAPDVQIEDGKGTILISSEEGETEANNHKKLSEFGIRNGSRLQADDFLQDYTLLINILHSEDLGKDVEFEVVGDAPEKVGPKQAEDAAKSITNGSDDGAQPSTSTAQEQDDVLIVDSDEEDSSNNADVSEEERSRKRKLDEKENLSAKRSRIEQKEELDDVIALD
Chain of SUMO E1/E2 (P63279 whole entry): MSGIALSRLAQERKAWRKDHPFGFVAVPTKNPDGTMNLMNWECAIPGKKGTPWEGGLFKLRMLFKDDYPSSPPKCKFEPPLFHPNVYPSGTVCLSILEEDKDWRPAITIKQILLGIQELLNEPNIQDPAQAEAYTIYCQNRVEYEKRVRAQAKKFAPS

[1] = biological target: T1, Tyrosine-protein phosphatase non-receptor type 7 (Homo sapiens, UniProt P35236); type: functional
T1 sequence (P35236 whole entry): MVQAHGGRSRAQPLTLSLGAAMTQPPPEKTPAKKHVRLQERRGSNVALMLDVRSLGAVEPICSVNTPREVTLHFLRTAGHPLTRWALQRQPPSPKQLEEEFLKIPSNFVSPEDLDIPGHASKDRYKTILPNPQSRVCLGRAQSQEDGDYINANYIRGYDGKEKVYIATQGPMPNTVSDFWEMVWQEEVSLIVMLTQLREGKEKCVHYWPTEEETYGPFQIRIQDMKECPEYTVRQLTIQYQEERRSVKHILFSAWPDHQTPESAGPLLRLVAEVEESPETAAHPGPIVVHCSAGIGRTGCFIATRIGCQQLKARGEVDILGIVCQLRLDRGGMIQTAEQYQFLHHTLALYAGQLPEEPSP

[2] = biological target: T2, Voltage-gated N-type calcium channel alpha-1B subunit/Amyloid beta A4 precursor protein-binding family A member 1 (Homo sapiens, UniProt Q00975+Q02410); type: protein assay
T2 sequence (Q00975 whole entry): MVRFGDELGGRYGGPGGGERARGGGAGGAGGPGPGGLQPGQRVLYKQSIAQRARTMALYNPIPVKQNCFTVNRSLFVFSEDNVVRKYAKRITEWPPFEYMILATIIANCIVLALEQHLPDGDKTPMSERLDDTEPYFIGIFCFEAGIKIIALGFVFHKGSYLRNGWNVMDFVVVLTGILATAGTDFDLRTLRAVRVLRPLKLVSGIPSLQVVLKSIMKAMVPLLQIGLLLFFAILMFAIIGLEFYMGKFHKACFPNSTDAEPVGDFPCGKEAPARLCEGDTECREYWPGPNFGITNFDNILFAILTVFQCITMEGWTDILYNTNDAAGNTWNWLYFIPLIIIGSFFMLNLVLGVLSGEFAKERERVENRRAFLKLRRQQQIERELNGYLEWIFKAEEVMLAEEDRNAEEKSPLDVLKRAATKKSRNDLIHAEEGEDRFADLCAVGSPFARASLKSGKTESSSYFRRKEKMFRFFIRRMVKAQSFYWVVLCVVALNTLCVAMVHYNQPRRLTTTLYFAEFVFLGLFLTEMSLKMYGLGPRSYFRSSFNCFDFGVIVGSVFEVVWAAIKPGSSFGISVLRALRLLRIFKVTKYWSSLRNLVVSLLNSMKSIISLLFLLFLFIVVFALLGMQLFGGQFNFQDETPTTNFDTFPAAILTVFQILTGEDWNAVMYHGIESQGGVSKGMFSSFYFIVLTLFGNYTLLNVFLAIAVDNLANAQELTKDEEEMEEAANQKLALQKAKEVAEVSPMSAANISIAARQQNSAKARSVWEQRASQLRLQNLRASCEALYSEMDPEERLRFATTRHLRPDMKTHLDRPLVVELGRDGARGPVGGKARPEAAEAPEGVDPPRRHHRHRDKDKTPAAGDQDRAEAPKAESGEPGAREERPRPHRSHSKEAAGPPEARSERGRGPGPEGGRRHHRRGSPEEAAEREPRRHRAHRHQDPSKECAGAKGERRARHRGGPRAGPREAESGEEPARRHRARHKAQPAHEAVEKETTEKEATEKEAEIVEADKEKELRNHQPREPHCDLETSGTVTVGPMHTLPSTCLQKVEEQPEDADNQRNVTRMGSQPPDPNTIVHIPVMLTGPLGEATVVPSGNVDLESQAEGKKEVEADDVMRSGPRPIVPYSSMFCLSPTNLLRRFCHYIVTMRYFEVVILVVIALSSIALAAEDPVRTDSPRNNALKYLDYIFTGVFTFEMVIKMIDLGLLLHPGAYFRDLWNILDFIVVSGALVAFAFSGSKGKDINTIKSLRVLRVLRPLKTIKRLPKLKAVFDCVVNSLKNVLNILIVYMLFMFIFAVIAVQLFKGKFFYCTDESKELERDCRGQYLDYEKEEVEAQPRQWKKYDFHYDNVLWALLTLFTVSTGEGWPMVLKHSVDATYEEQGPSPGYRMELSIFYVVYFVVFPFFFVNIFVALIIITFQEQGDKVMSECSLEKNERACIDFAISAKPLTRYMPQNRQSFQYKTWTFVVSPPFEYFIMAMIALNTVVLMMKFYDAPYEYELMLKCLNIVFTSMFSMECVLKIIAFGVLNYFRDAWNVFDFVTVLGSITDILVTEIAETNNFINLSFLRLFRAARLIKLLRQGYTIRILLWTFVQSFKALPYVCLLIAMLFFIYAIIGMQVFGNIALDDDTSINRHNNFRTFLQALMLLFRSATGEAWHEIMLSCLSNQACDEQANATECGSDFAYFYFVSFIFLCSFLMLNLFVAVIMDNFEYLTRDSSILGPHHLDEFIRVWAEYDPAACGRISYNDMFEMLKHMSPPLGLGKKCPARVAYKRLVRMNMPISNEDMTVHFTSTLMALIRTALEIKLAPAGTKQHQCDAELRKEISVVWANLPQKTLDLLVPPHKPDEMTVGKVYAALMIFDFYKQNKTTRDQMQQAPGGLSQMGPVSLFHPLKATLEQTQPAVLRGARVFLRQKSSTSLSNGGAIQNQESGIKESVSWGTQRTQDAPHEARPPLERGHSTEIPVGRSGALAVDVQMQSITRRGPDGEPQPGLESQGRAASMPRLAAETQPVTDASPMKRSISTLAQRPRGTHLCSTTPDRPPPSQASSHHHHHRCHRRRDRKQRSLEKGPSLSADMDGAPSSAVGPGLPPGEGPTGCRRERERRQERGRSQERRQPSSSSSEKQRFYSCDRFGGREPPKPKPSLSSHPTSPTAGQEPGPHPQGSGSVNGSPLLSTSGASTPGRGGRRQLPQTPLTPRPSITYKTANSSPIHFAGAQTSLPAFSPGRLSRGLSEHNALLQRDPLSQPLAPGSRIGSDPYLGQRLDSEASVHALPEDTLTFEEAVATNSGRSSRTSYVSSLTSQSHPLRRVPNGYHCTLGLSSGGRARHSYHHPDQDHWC
T2 sequence (Q02410 whole entry): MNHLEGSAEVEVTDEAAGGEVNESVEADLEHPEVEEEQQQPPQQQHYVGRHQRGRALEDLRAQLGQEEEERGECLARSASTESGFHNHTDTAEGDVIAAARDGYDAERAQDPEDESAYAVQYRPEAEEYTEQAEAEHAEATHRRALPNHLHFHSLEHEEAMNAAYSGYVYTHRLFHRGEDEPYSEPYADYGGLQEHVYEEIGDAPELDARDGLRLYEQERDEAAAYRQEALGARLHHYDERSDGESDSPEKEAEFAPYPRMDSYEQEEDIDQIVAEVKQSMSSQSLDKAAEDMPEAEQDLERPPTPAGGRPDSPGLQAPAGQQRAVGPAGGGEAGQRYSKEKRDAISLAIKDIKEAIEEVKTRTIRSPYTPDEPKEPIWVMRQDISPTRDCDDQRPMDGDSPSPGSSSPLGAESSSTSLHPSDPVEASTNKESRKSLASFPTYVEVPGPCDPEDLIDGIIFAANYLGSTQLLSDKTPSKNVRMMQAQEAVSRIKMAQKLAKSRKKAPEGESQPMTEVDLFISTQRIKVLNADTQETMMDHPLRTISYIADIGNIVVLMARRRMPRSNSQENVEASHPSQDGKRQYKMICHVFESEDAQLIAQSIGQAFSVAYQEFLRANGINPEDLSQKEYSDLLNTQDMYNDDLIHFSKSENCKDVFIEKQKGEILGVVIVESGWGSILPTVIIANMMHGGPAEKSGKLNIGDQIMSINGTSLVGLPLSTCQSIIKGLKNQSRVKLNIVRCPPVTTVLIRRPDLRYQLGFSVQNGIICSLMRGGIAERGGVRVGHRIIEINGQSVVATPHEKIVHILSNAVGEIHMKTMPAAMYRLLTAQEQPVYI

[3] = biological target: T3, Tyrosine-protein phosphatase non-receptor type 22 (Homo sapiens, UniProt Q9Y2R2); type: functional
T3 sequence (Q9Y2R2 whole entry): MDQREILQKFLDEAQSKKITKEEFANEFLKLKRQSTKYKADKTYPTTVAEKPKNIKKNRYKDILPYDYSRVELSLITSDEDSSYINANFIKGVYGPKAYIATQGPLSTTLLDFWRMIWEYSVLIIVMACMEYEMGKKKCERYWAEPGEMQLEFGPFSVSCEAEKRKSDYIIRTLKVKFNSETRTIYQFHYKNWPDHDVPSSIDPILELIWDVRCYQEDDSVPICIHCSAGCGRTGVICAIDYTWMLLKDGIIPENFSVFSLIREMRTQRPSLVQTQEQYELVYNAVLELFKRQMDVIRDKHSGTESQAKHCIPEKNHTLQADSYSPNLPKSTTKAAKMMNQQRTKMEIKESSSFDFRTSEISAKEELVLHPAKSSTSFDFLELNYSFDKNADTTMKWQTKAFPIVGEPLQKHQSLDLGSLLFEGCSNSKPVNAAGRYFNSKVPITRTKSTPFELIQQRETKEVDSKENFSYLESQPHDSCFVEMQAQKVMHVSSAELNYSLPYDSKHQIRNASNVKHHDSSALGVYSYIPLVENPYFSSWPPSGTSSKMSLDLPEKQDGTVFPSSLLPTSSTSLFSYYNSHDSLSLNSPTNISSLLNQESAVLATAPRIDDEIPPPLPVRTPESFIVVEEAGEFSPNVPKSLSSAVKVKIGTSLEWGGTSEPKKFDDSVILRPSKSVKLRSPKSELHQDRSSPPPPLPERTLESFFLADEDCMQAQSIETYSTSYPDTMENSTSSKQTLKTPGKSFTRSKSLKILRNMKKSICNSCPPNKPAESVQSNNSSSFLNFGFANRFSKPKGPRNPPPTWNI

[4] = biological target: T3, Tyrosine-protein phosphatase non-receptor type 22; type: functional; remark: listed apart in the source
[5] = biological target: T2, Voltage-gated N-type calcium channel alpha-1B subunit/Amyloid beta A4 precursor protein-binding family A member 1; type: protein assay; remark: listed apart in the source
[6] = biological target: DNA dC->dU-editing enzyme APOBEC-3G (Homo sapiens, UniProt Q9HC16); assay: Dose Response confirmation of small molecule APOBEC3G DNA Deaminase Inhibitors via a fluorescence-based single-stranded DNA deaminase assay. [Related pubchem assays (depositor defined):AID493012, AID493028]; type: functional
Chain of DNA dC->dU-editing enzyme APOBEC-3G (Q9HC16 whole entry): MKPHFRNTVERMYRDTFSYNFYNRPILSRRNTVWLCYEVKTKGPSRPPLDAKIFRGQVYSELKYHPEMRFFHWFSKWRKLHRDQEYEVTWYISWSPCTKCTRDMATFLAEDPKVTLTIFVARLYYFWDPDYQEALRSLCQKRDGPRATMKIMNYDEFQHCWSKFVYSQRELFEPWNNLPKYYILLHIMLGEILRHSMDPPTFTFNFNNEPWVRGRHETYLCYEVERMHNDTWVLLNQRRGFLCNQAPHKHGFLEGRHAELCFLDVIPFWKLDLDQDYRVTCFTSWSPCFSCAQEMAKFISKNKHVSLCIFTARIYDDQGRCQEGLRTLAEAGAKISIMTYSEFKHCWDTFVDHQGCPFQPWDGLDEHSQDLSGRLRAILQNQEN

[7] = biological target: G-protein coupled receptor 55 (Homo sapiens, UniProt Q9Y2T6); assay: blockers of GPR55 signalling, imaged – imaging, image-based, counter-screen for GPR35 antagonist project, SAR follow-up (AID 2397); type: functional
Chain of G-protein coupled receptor 55 (Q9Y2T6 whole entry): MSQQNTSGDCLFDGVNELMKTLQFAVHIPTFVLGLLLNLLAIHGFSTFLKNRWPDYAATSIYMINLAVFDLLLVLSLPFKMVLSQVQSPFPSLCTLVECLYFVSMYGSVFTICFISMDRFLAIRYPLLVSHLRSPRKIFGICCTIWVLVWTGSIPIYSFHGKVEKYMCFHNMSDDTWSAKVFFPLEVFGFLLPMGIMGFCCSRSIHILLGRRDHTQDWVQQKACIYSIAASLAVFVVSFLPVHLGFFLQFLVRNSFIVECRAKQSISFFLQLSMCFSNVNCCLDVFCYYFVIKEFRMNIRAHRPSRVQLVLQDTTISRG

IC50 (SUMO E1/E2): 28.7 µM (active)
Compound: O=C1c2oc3ccccc3c(=O)c2C(c2ccc(O)cc2)N1c1nccs1 (stereo not drawn)

Compound: COc1ccc(NC(=O)CN2C(=O)/C(=C3\SC(=S)N(CCC(=O)O)C3=O)c3ccccc32)cc1
IC50 [1]: 6.84 µM (active)
IC50 [2]: 14.5 µM (active)
IC50 [3]: 6.11 µM (active)
IC50 [4]: 13.8 µM (active)
IC50 [5]: > 50 µM (inactive)
IC50 [6]: 40.9 µM (active)

IC50 [7]: > 32 µM (inactive)
Compound: O=C(Nc1ccc2nc(SCc3ccc(Cl)c(Cl)c3)sc2c1)c1ccccc1Br
